{"source": "ChEMBL document CHEMBL5104111", "about": "“Boron-Containing heterocycles as promising pharmacological agents” (Bioorg Med Chem, 2022)", "key": {"Escherichia coli [1]": {"system": "Escherichia coli", "experiment": "Antibacterial activity against Escherichia coli assessed as bacterial growth inhibition", "assay_type": "functional"}, "Klebsiella pneumoniae [2]": {"system": "Klebsiella pneumoniae", "experiment": "Antibacterial activity against Klebsiella pneumoniae assessed as bacterial growth inhibition", "assay_type": "functional"}, "[3]": {"system": "Mycobacterium tuberculosis", "experiment": "Antibacterial activity against Mycobacterium tuberculosis H37Rv ATCC 27294 assessed as bacterial growth inhibition by radiometry method", "assay_type": "functional"}, "Klebsiella pneumoniae [4]": {"system": "Klebsiella pneumoniae", "experiment": "Antibacterial activity against Klebsiella pneumoniae Delta-217 assessed as bacterial growth inhibition incubated for 16 hrs by broth dilution method", "assay_type": "functional"}, "Salmonella typhimurium": {"system": "Salmonella typhimurium", "experiment": "Antibacterial activity against Salmonella typhimurium Delta-119 assessed as bacterial growth inhibition incubated for 16 hrs by broth dilution method", "assay_type": "functional, Salmonella enterica subsp. enterica serovar Typhimurium", "settings": "Salmonella enterica"}, "Proteus mirabilis": {"system": "Proteus mirabilis", "experiment": "Antibacterial activity against Proteus mirabilis Delta-89 assessed as bacterial growth inhibition incubated for 16 hrs by broth dilution method", "assay_type": "functional"}, "L5178Y": {"system": "L5178Y", "experiment": "Anticancer activity against mouse L5178Y cells assessed as cell growth inhibition incubated for 24 hrs by MTT assay", "assay_type": "functional, cell-based"}, "Streptococcus mutans": {"system": "Streptococcus mutans", "experiment": "Antibacterial activity against Streptococcus mutans assessed as bacterial growth inhibition", "assay_type": "functional"}, "[5]": {"experiment": "Inhibition of Escherichia coli LeuRS using Escherichia coli tRNA as substrate incubated for 20 mins in presence of 14C-leucine/ATP"}, "Escherichia coli [6]": {"system": "Escherichia coli", "experiment": "Antibacterial activity against Escherichia coli ATCC 25922 assessed as bacterial growth inhibition", "assay_type": "functional"}, "[7]": {"experiment": "Binding affinity to Candida glabrata beta-carbonic anhydrase assessed as inhibition constant preincubated for 15 mins by bromothymol blue staining based assay", "parameters": "species or system Nakaseomyces glabratus"}, "[8]": {"experiment": "Binding affinity to Cryptococcus neoformans beta-carbonic anhydrase assessed as inhibition constant preincubated for 15 mins by bromothymol blue staining based assay"}, "[9]": {"experiment": "Cytotoxicity against HEK293T cells assessed as reduction in cell viability incubated for 48 hrs by MTT assay", "assay_type": "toxicity, cell-based, HEK-293T", "settings": "human"}, "[10]": {"system": "Mycobacterium tuberculosis", "experiment": "Antibacterial activity against Mycobacterium tuberculosis assessed as bacterial growth inhibition", "assay_type": "functional"}, "[11]": {"biological_target": "cAMP and cAMP-inhibited cGMP 3',5'-cyclic phosphodiesterase 10A (Homo sapiens, UniProt Q9Y233)", "sequence (Q9Y233 whole entry)": "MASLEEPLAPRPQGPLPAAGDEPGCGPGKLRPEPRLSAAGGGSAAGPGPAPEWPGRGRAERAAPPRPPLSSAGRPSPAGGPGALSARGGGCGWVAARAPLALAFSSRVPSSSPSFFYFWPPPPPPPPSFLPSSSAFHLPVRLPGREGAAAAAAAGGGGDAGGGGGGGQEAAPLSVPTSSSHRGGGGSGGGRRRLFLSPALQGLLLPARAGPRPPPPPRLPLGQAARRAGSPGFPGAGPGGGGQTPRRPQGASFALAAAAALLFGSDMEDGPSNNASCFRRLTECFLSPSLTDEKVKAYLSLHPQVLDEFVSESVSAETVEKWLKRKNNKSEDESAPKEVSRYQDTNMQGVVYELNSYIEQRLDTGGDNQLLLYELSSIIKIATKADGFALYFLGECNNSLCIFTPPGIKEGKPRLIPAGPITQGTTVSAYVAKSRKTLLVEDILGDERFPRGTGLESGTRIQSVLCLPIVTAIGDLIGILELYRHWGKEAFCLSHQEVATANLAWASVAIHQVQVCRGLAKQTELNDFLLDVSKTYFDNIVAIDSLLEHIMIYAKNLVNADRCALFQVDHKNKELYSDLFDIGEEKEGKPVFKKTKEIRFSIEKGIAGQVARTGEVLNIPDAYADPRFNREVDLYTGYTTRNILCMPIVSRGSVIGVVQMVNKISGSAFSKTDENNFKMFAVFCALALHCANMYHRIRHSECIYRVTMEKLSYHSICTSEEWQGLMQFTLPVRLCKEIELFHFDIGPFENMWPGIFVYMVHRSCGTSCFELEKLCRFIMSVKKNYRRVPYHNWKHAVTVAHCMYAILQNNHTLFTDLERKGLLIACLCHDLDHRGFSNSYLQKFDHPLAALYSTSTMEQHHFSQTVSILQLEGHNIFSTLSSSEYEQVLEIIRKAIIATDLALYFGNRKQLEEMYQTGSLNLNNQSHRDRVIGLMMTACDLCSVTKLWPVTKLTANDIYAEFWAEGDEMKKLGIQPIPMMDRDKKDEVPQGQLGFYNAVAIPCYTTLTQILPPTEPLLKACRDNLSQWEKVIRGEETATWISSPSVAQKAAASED", "experiment": "Inhibition of PDE10A (unknown origin)"}, "[12]": {"experiment": "Lipophilicity, log P of the compound", "assay_type": "physicochemical", "settings": "octanol/water"}, "Staphylococcus aureus [13]": {"system": "Staphylococcus aureus", "experiment": "Antibacterial activity against healthcare-associated Methicillin-resistant Staphylococcus aureus assessed as bacterial growth inhibition", "assay_type": "functional"}, "Staphylococcus aureus [14]": {"system": "Staphylococcus aureus", "experiment": "Antibacterial activity against Staphylococcus aureus ATCC 43300 assessed as bacterial growth inhibition incubated for 1 hr by plate colony counting method", "assay_type": "functional"}, "HepG2": {"system": "HepG2", "experiment": "Cytotoxicity against human HepG2 cells assessed as cell growth inhibition incubated for 72 hrs by Cell Titer Glo assay", "assay_type": "functional, cell-based", "settings": "HepG2, 72 h"}, "[15]": {"system": "Mycobacterium tuberculosis", "experiment": "Antibacterial activity against Mycobacterium tuberculosis H37Rv ATCC 25618 assessed as bacterial growth inhibition incubated for 5 days by fluorescence based assay", "assay_type": "functional, organism-based", "settings": "H37Rv ATCC 25618, 120 h"}, "Aspergillus niger [16]": {"system": "Aspergillus niger", "experiment": "Antifungal activity against Aspergillus niger assessed as fungal growth inhibition at 50 ug incubated for 96 hrs by disk diffusion method", "assay_type": "functional", "settings": "read-out: IZ"}, "Verticillium dahliae": {"system": "Verticillium dahliae", "experiment": "Antifungal activity against Verticillium dahliae assessed as fungal growth inhibition at 50 ug incubated for 96 hrs by disk diffusion method", "assay_type": "functional", "settings": "read-out: IZ"}, "Pseudomonas aeruginosa": {"system": "Pseudomonas aeruginosa", "experiment": "Antibacterial activity against Pseudomonas aeruginosa assessed as bacterial growth inhibition by broth microdilution method", "assay_type": "functional"}, "Prototheca zopfii": {"system": "Prototheca zopfii", "experiment": "Antimicrobial activity against Prototheca zopfii assessed as microbial growth inhibition by CLSI protocol based assay", "assay_type": "functional"}, "[17]": {"experiment": "Anticancer activity against human 1321N1 cells assessed as cell growth inhibition by dynamic assay", "assay_type": "functional, cell-based"}, "Caco-2": {"system": "Caco-2", "experiment": "Anticancer activity against human Caco-2 cells assessed as cell growth inhibition by cytometry", "assay_type": "functional, cell-based"}, "Saccharomyces cerevisiae": {"system": "Saccharomyces cerevisiae", "experiment": "Antifungal activity against Saccharomyces cerevisiae assessed as fungal growth inhibition at 100 ug", "assay_type": "functional", "settings": "read-out: IZ"}, "Aspergillus niger [18]": {"system": "Aspergillus niger", "experiment": "Antifungal activity against Aspergillus niger assessed as fungal growth inhibition at 25 ug incubated for 48 hrs by disk diffusion method", "assay_type": "functional", "settings": "read-out: IZ"}, "Candida albicans": {"system": "Candida albicans", "experiment": "Antifungal activity against Candida albicans assessed as fungal growth inhibition at 25 ug incubated for 48 hrs by disk diffusion method", "assay_type": "functional", "settings": "read-out: IZ"}, "THP-1": {"system": "THP-1", "experiment": "Antiinflammatory activity against human THP-1 cells assessed as inhibition of LPS-stimulated IL-1beta release measured after 1 hr by ELISA", "assay_type": "functional, cell-based", "settings": "THP-1, 1 h"}}, "data": [{"smiles": "Cc1ccc(S(=O)(=O)N2N=Cc3ccccc3B2O)cc1", "values": [{"measurement": "MIC", "setting": "Escherichia coli [1]", "value": 25, "unit": "µg/mL"}, {"measurement": "MIC", "setting": "Klebsiella pneumoniae [2]", "value": 3.1, "unit": "µg/mL"}]}, {"smiles": "O=C1Nc2ccccc2B(O)N1c1ccccc1", "values": [{"measurement": "MIC", "setting": "[3]", "value": 8, "unit": "µg/mL"}]}, {"smiles": "CCCS(=O)(=O)N1N=Cc2sc(C)cc2B1O", "values": [{"measurement": "MIC", "setting": "Klebsiella pneumoniae [4]", "value": 0.31, "unit": "µg/mL"}, {"measurement": "MIC", "setting": "Salmonella typhimurium", "value": 0.19, "unit": "µg/mL"}]}, {"smiles": "Cc1ccc2c(c1)C=NN(S(=O)(=O)c1ccc(N)cc1Cl)B2O", "values": [{"measurement": "MIC", "setting": "Proteus mirabilis", "value": 0.78, "unit": "µg/mL"}, {"measurement": "MIC", "setting": "Klebsiella pneumoniae [4]", "value": 0.39, "unit": "µg/mL"}]}, {"smiles": "O=C1C[NH2+][B-](c2ccccc2)(c2ccccc2)O1", "values": [{"measurement": "IC50", "setting": "L5178Y", "value": 22500, "unit": "nM"}]}, {"smiles": "CC1NB(c2ccccc2)OC1c1ccccc1", "note": "(stereo unspecified)", "values": [{"measurement": "MIC", "setting": "Streptococcus mutans", "value": 1300, "unit": "µM"}]}, {"smiles": "CCCCB1OC(c2ccccc2)C(C)N1C", "note": "(stereo unspecified)", "values": [{"measurement": "MIC", "setting": "Streptococcus mutans", "value": 500, "unit": "µM"}]}, {"smiles": "Cl.NC[C@H]1OB(O)c2c(OCCCO)cccc21", "values": [{"measurement": "IC50", "setting": "[5]", "value": 310, "unit": "nM"}, {"measurement": "MIC", "setting": "Escherichia coli [6]", "value": 1, "unit": "µg/mL"}]}, {"smiles": "O=C(Nc1ccc(F)cc1)Nc1ccc2c(c1)B(O)OC2", "values": [{"measurement": "Ki", "setting": "[7]", "value": 75, "unit": "nM"}, {"measurement": "Ki", "setting": "[8]", "value": 78, "unit": "nM"}]}, {"smiles": "OB1c2sccc2C=NN1Cc1ccccc1", "values": [{"measurement": "CC50 at 48 h", "setting": "[9]", "value": "> 100000", "unit": "nM"}]}, {"smiles": "Cc1ccc2c(c1-c1ccccc1C(N)=O)B(O)OC2", "values": [{"measurement": "IC90", "setting": "[10]", "value": 1800, "unit": "nM"}]}, {"smiles": "CN(C(=O)c1nc(-c2cccnc2)cs1)c1ccc(OCB2C=Cc3ccccc3N2)cc1", "values": [{"measurement": "IC50", "setting": "[11]", "value": 330, "unit": "nM"}]}, {"smiles": "OCc1ccc2c(c1)C=CB(c1ccc(O)c(C34CC5CC(CC(C5)C3)C4)c1)N2", "values": [{"measurement": "logP", "setting": "[12]", "value": 0.12}, {"measurement": "MIC", "setting": "Staphylococcus aureus [13]", "value": 64, "unit": "µM"}]}, {"smiles": "N#Cc1ccccc1-c1cccc2c1B(O)OC2", "values": [{"measurement": "IC90", "setting": "[10]", "value": 30000, "unit": "nM"}]}, {"smiles": "CN1C(=O)C2(Cc3ccccc3B(O)O2)c2ccccc21", "note": "(stereo unspecified)", "values": [{"measurement": "logP", "setting": "[12]", "value": 3.52}]}, {"smiles": "Cc1cccc(N2B(c3cccc([N+](=O)[O-])c3)ON=C2c2ccccc2)c1", "values": [{"measurement": "MIC", "setting": "Staphylococcus aureus [14]", "value": 0.06, "unit": "µM"}]}, {"smiles": "CS(=O)(=O)N1N=Cc2ccc(Oc3ccc(C(F)(F)F)cc3/C=N/O)cc2B1O", "values": [{"measurement": "IC50", "setting": "HepG2", "value": "> 100000", "unit": "nM"}, {"measurement": "IC50", "setting": "[15]", "value": 110, "unit": "nM"}]}, {"smiles": "COc1ccc2c(c1)C=NN(C(N)=S)B2O", "values": [{"measurement": "zone of inhibition at 50 µg/disc", "setting": "Aspergillus niger [16]", "value": 2.3, "unit": "mm"}, {"measurement": "zone of inhibition at 50 µg/disc", "setting": "Verticillium dahliae", "value": 6.4, "unit": "mm"}]}, {"smiles": "Clc1ccc(-c2noc3c2COB(c2cccc(Br)c2)OC3)cc1", "values": [{"measurement": "MIC", "setting": "Pseudomonas aeruginosa", "value": 25, "unit": "µg/mL"}]}, {"smiles": "COc1ccc([N+]2=C(c3ccccc3)C=C(C(Cl)(Cl)Cl)O[B-]2(F)F)cc1", "values": [{"measurement": "MIC", "setting": "Prototheca zopfii", "value": 0.3, "unit": "µg/mL"}]}, {"smiles": "Cc1ccc(S(=O)(=O)N2N=Cc3cc(C)oc3B2O)cc1", "values": [{"measurement": "MIC", "setting": "Klebsiella pneumoniae [4]", "value": 1.56, "unit": "µg/mL"}, {"measurement": "MIC", "setting": "Salmonella typhimurium", "value": 3.12, "unit": "µg/mL"}]}, {"smiles": "CC(C)C1=[N+](Cc2cccc(C(F)(F)F)c2)[B-](c2ccccc2)(c2ccccc2)OC1=O", "values": [{"measurement": "IC50", "setting": "[17]", "value": 268000, "unit": "nM"}, {"measurement": "IC50", "setting": "Caco-2", "value": 76000, "unit": "nM"}]}, {"smiles": "CCNC(=S)N1N=Cc2ccccc2B1O", "values": [{"measurement": "zone of inhibition at 100 µg/disc", "setting": "Saccharomyces cerevisiae", "value": 4.3, "unit": "mm"}]}, {"smiles": "C=CCNC(=S)N1N=Cc2ccccc2B1O", "values": [{"measurement": "zone of inhibition at 25 µg/disc", "setting": "Aspergillus niger [18]", "value": 7, "unit": "mm"}, {"measurement": "zone of inhibition at 25 µg/disc", "setting": "Candida albicans", "value": 9, "unit": "mm"}]}, {"smiles": "CC(=O)C1=C(C(Cl)(Cl)Cl)N[B-](c2ccccc2)(c2ccccc2)[O+]=C1C", "values": [{"measurement": "IC50", "setting": "THP-1", "value": 574, "unit": "nM"}]}]}
